Assay results published in patent US9440982B2 (Eolas Therapeutics, Inc., priority 2012, dated 2016).

Key:
OX1 = target: T1, OX1 (Homo sapiens, UniProt O43613); assay: Orexin receptor cell-based functional assay, [Ca2+]i by FLIPR, CHO-OX1 cells; settings: CHO-OX1 cells, [Ca2+]i by FLIPR, antagonist dose-range 0.1 nM-10 μM, EC90 of OXA; read-out: OX1
T1 construct: expressed in transfected cells; host or cells: CHO (CHO-OX1, kept under selection antibiotic)
T1 sequence (O43613 1-425): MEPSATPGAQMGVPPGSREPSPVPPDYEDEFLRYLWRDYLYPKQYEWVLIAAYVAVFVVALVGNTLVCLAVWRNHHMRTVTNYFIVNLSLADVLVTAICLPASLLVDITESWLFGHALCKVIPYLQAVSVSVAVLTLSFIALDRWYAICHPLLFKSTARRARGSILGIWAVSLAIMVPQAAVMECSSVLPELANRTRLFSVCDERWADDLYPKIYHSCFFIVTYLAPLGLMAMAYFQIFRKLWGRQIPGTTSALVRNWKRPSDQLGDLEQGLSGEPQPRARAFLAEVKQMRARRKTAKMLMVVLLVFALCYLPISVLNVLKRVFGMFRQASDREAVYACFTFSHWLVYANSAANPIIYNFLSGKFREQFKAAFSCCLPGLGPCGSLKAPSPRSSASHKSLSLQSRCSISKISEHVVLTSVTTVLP
Outline: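 CHO cells expressing human OX1 or OX2 loaded with calcium dye plus 2.5 mM probenecid at 37° C (calcium4, 30 min, or calcium6, 2 h), then exposed to compounds (0.1 nM-10 μM) for 30 min. Intracellular Ca2+ measured on FLIPR; antagonist format.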

CYP3A4 = target: T2, CYP3A4 (Homo sapiens, UniProt P08684); assay: Cytochrome P450 inhibition assay (midazolam hydroxylation); type: in vitro ADME; settings: human, human liver microsomes, probe midazolam (hydroxylation to 1′-hydroxymidazolam), 10 μM test compound, midazolam at approximately its Km
T2 construct: pre-incubated with human liver microsomes and NADPH; from tissue; host or cells: human liver microsomes
T2 sequence (P08684 whole entry): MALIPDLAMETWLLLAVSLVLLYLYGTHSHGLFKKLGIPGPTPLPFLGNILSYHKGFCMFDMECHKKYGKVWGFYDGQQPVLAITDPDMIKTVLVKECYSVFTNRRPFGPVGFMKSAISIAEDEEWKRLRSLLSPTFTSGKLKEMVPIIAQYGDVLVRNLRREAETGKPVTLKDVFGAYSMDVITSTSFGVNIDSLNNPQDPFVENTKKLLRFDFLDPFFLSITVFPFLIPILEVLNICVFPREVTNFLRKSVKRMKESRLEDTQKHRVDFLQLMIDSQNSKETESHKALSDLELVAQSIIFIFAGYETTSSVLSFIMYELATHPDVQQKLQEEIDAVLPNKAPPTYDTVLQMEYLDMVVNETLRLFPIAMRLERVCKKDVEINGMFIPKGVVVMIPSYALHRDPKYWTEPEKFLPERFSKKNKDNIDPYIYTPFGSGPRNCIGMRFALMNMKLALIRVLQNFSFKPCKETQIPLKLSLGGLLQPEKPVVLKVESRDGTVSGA
Outline: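 Human liver microsomes; CYP3A4 activity as midazolam 1′-hydroxylation with substrate near Km, with or without 10 μM test compound, read as percent inhibition. For time-dependent inhibition, parallel samples were preincubated 30 min with NADPH before substrate, and percent inhibition compared with non-preincubated samples.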

SMILES	IC50 (OX1)	inhibition at 10 µM (CYP3A4)
Cc1ccc(-c2ncccn2)c(C(=O)N2CCC[C@@H](C)[C@H]2CNc2ccc(C#N)cn2)c1 [Example A139, 6-((((2S,3R)-3-Methyl-1-(5-methyl-2-(pyrimidin-2-yl)benzoyl)piperidin-2-yl)methyl)amino)nicotinonitrile]	140 nM	41%
Cc1ccc(-n2nccn2)c(C(=O)N2CCC[C@@H](C)[C@H]2CNc2ccc(C#N)nn2)c1 [Example A145, 6-((((2S,3R)-3-Methyl-1-(5-methyl-2-(2H-1,2,3-triazol-2-yl)benzoyl)piperidin-2-yl)methyl)amino)pyridazine-3-carbonitrile]	> 1000 nM	48%
Cc1ccc(-n2nccn2)c(C(=O)N2CCC[C@@H](C)[C@H]2CNc2ccc(C)nn2)c1 [Example A146, ((2S,3R)-3-Methyl-2-(((6-methylpyridazin-3-yl)amino)methyl)piperidin-1-yl)(5-methyl-2-(2H-1,2,3-triazol-2-yl)phenyl)methanone]	> 1000 nM	29%
Cc1ccc(-c2ccccn2)c(C(=O)N2CCC[C@@H](C)[C@H]2CNc2ccc(C(F)(F)F)nn2)c1 [Example A150, ((2S,3R)-3-Methyl-2-(((6-(trifluoromethyl)pyridazin-3-yl)amino)methyl)piperidin-1-yl) (5-methyl-2-(pyridin-2-yl)phenyl)methanone]	130 nM	74%
Cc1ccc(-c2ccccn2)c(C(=O)N2CCC[C@@H](C)[C@H]2CNc2ncc(C#N)cn2)c1 [Example A153, 2-((((2S,3R)-3-Methyl-1-(5-methyl-2-(pyridin-2-yl)benzoyl)piperidin-2-yl)methyl)amino)pyrimidine-5-carbonitrile]	140 nM	66%
Cc1ccc(-n2cccn2)c(C(=O)N2CCC[C@@H](C)[C@H]2CNc2ccc(C)nn2)c1 [Example A154, ((2S,3R)-3-Methyl-2-(((6-methylpyridazin-3-yl)amino)methyl)piperidin-1-yl)(5-methyl-2-(1H-pyrazol-1-yl)phenyl)methanone]	> 1000 nM	43%
Cc1ccc(-n2cccn2)c(C(=O)N2CCC[C@@H](C)[C@H]2CNc2ccc(C#N)nn2)c1 [Example A156, 6-((((2S,3R)-3-Methyl-1-(5-methyl-2-(1H-pyrazol-1-yl)benzoyl)piperidin-2-yl)methyl)amino)pyridazine-3-carbonitrile]	> 1000 nM	53%
Cc1ccc(-n2cccn2)c(C(=O)N2CCC[C@@H](C)[C@H]2CNc2ccc(C(F)(F)F)nn2)c1 [Example A157, ((2S,3R)-3-mMethyl-2-(((6-(trifluoromethyl)pyridazin-3-yl)amino)methyl)piperidin-1-yl)(5-methyl-2-(1H-pyrazol-1-yl)phenyl)methanone]	110 nM	77%
Cc1ccc(-c2ccc(C(F)(F)F)cn2)c(C(=O)N2CCC[C@@H](C)[C@H]2CNc2ccc(Cl)cn2)c1 [Example A158, ((2S,3R)-2-(((5-Chloropyridin-2-yl)amino)methyl)-3-methylpiperidin-1-yl)(5-methyl-2-(5-(trifluoromethyl)pyridin-2-yl)phenyl)methanone]	220 nM	83%
Cc1ccc(-c2ccc(F)cn2)c(C(=O)N2CCC[C@@H](C)[C@H]2CNc2ccc(Cl)cn2)c1 [Example A159, ((2S,3R)-2-(((5-Chloropyridin-2-yl)amino)methyl)-3-methylpiperidin-1-yl)(2-(5-fluoropyridin-2-yl)-5-methylphenyl)methanone]	170 nM	88%
Cc1ccc(-n2nccn2)c(C(=O)N2CCC[C@@H](C)[C@H]2CNc2ncc(F)cn2)c1 [Example A171, ((2S,3R)-2-(((5-Fluoropyrimidin-2-yl)amino)methyl)-3-methylpiperidin-1-yl)(5-methyl-2-(2H-1,2,3-triazol-2-yl)phenyl)methanone]	370 nM	36%

Compounds with a lower IC50 (OX1), results first:

IC50 (OX1)	inhibition at 10 µM (CYP3A4)	SMILES
12 nM	75%	Cc1ccc(-c2ncccn2)c(C(=O)N2CCC[C@@H](C)[C@H]2CNc2ccc(Cl)cn2)c1 [Example A138, ((2S,3R)-2-(((5-Chloropyridin-2-yl)amino)methyl)-3-methylpiperidin-1-yl)(5-methyl-2-(pyrimidin-2-yl)phenyl)methanone]
13 nM	64%	Cc1ccc(-n2nccn2)c(C(=O)N2CCC[C@@H](C)[C@H]2CNc2ccc(C3(C#N)CC3)cn2)c1 [Example A140, 1-(6-((((2S,3R)-3-Methyl-1-(5-methyl-2-(2H-1,2,3-triazol-2-yl)benzoyl)piperidin-2-yl)methyl)amino)pyridin-3-yl)cyclopropanecarbonitrile]
51 nM	74%	Cc1ccc(-n2ncc(C)n2)c(C(=O)N2CCC[C@@H](C)[C@H]2CNc2ccc(F)cn2)c1 [Example A142, ((2S,3R)-2-(((5-Fluoropyridin-2-yl)amino)methyl)-3-methylpiperidin-1-yl)(5-methyl-2-(4-methyl-2H-1,2,3-triazol-2-yl)phenyl)methanone]
26 nM	75%	Cc1ccc(NC[C@@H]2[C@H](C)CCCN2C(=O)c2cc(C)ccc2-c2ncccn2)nc1 [Example A143, ((2S,3R)-3-Methyl-2-(((5-methylpyridin-2-yl)amino)methyl)piperidin-1-yl)(5-methyl-2-(pyrimidin-2-yl)phenyl)methanone]
83 nM	81%	Cc1ccc(-n2nccn2)c(C(=O)N2CCC[C@@H](C)[C@H]2CNc2ncc(C#N)cc2F)c1 [Example A148, 5-Fluoro-6-((((2S,3R)-3-methyl-1-(5-methyl-2-(2H-1,2,3-triazol-2-yl)benzoyl)piperidin-2-yl)methyl)amino)nicotinonitrile]
3 nM	60%	Cc1ccc(-n2nccn2)c(C(=O)N2CCC[C@@H](C)[C@H]2CNc2ncc(C(F)(F)F)cn2)c1 [Example A149, ((2S,3R)-3-Methyl-2-(((5-(trifluoromethyl)pyrimidin-2-yl)amino)methyl)piperidin-1-yl)(5-methyl-2-(2H-1,2,3-triazol-2-yl)phenyl)methanone]
4 nM	86%	Cc1ccc(-c2ccccn2)c(C(=O)N2CCC[C@@H](C)[C@H]2CNc2ncc(C(F)(F)F)cn2)c1 [Example A152, ((2S,3R)-3-Methyl-2-(((5-(trifluoromethyl)pyrimidin-2-yl)amino)methyl)piperidin-1-yl) (5-methyl-2-(pyridin-2-yl)phenyl)methanone]
1 nM	59%	C[C@@H]1CCCN(C(=O)c2cc(Cl)ccc2-n2nccn2)[C@@H]1CNc1ncc(C(F)(F)F)cn1 [Example A160, (5-Chloro-2-(2H-1,2,3-triazol-2-yl)phenyl)((2S,3R)-3-methyl-2-(((5-(trifluoromethyl)pyrimidin-2-yl)amino)methyl)piperidin-1-yl)methanone]
13 nM	68%	C[C@@H]1CCCN(C(=O)c2cc(Cl)ccc2-n2nccn2)[C@@H]1CNc1ccc(Cl)cn1 [Example A161]
15 nM	76%	C[C@@H]1CCCN(C(=O)c2cc(Cl)ccc2-n2nccn2)[C@@H]1CNc1ccc(C(F)(F)F)nn1 [Example A162, (5-Chloro-2-(2H-1,2,3-triazol-2-yl)phenyl)((2S,3R)-3-methyl-2-(((6-(trifluoromethyl)pyridazin-3-yl)amino)methyl)piperidin-1-yl)methanone]
8 nM	44%	Cc1ccc(-n2cccn2)c(C(=O)N2CCC[C@@H](C)[C@H]2CNc2ncc(C(F)(F)F)cn2)n1 [Example A166, ((2S,3R)-3-Methyl-2-(((5-(trifluoromethyl)pyrimidin-2-yl)amino)methyl)piperidin-1-yl)(6-methyl-3-(1H-pyrazol-1-yl)pyridin-2-yl)methanone]
5 nM	45%	Cc1ccc(-c2ccccn2)c(C(=O)N2CCC[C@@H](C)[C@H]2CNc2ncc(C(F)(F)F)cn2)n1 [Example A167, ((2S,3R)-3-Methyl-2-(((5-(trifluoromethyl)pyrimidin-2-yl)amino)methyl)piperidin-1-yl)(6′-methyl-[2,3′-bipyridin]-2′-yl)methanone]
10 nM	59%	Cc1ccc(-n2cccn2)c(C(=O)N2CCC[C@@H](C)[C@H]2CNc2ccc(Cl)cn2)n1 [Example A168, ((2S,3R)-2-(((5-Chloropyridin-2-yl)amino)methyl)-3-methylpiperidin-1-yl)(6-methyl-3-(1H-pyrazol-1-yl)pyridin-2-yl)methanone]
8 nM	60%	Cc1ccc(-c2ccccn2)c(C(=O)N2CCC[C@@H](C)[C@H]2CNc2ccc(Cl)cn2)n1 [Example A169, ((2S,3R)-2-(((5-Chloropyridin-2-yl)amino)methyl)-3-methylpiperidin-1-yl)(6′-methyl-[2,3′-bipyridin]-2′-yl)methanone]
